Assay [1] concerns TBP-regulated DNA-nanoswitch variant #2 (DNA, hairpin) CTATATAAAGCCCTTTTATATATCTTGGGTAGGGC
Briefly: fluorescence anisotropy titration. To be noted: 150 mM NaCl, 10 mM MgCl2; 50 mM sodium phosphate pH 7.0, 25 °C; 100 nM doxorubicin titrated with DNA. On the technique in general: Polarisation of emitted light reports the rotation of a fluorescent probe.

Assay [2] relates to TBP-regulated control #1 (lacks GC-rich stem) (DNA, hairpin) TTATATAAATTTTTTATATATTTTTTTTATT
Briefly: fluorescence anisotropy. The note with it: 150 mM NaCl, 10 mM MgCl2; 50 mM sodium phosphate pH 7.0, 25 °C; equimolar doxorubicin and DNA, 100 nM.

The subject of assay [3] is TBP-regulated DNA-nanoswitch variant #1 (DNA, hairpin) CTATATAAACCTTTTATATATCTTGGGTAGG
Briefly: fluorescence anisotropy titration. To be noted: 150 mM NaCl, 10 mM MgCl2; 50 mM sodium phosphate pH 7.0, 25 °C; 100 nM doxorubicin titrated with DNA.

Assay [4] has as its system antibody-regulated DNA-nanoswitch variant #1 (DNA, hairpin) TAGTTTTTTTTTTTTTTTTCTA
Briefly: fluorescence anisotropy titration. The note with it: 150 mM NaCl, 10 mM MgCl2; 50 mM sodium phosphate pH 7.0, 25 °C; 100 nM doxorubicin titrated with DNA.

The subject of assay [5] is TBP-regulated DNA-nanoswitch variant #3 (DNA, hairpin) CTATATAAACCGCCCTTTTATATATCTTGGGTAGGGCGG
In words: fluorescence anisotropy titration. To be noted: 150 mM NaCl, 10 mM MgCl2; 50 mM sodium phosphate pH 7.0, 25 °C; 100 nM doxorubicin titrated with DNA.

Assay [6] relates to antibody-regulated DNA-nanoswitch variant #2 (DNA, hairpin) TCCGTTTTTTTTTTTTTTTTCGGA
Briefly: fluorescence anisotropy titration. To be noted: 150 mM NaCl, 10 mM MgCl2; 50 mM sodium phosphate pH 7.0, 25 °C; 100 nM doxorubicin titrated with DNA.

In assay [7] the test system is antibody-regulated DNA-nanoswitch variant #3 (DNA, hairpin) TCGCCGTTTTTTTTTTTTTTTTCGGCGA
Briefly: fluorescence anisotropy titration. To be noted: 150 mM NaCl, 10 mM MgCl2; 50 mM sodium phosphate pH 7.0, 25 °C; 100 nM doxorubicin titrated with DNA.

SMILES strings stand for the structures.

For the compound `COc1cccc2c1C(=O)c1c(O)c3c(c(O)c1C2=O)C[C@@](O)(C(=O)CO)C[C@@H]3O[C@H]1C[C@H](N)[C@H](O)[C@H](C)O1`, the binding result in assay [1] is given as “yes”; in assay [2], “weak”; in assay [3] it was “yes”; in assay [4] it was “weak”; in assay [5] it was “yes”; in assay [6] it was “yes”. The binding result in assay [7] was “yes”.

The values are drawn from article PMC5452262 (2016).
